Test results as given in paper PMC8333425, “Discovery of a dual Ras and ARF6 inhibitor from a GPCR endocytosis screen” (Nature Communications, 2021).
“And” between values parts separate entries of the source, which are not always exact repeats. Equal entries are not always repeated.

Target: T1, β-arrestin/AP-2 complex (Homo sapiens, UniProt P63010)
T1 construct: expressed in transfected cells; host or cells: HEK293SL
T1 sequence (P63010 1-937): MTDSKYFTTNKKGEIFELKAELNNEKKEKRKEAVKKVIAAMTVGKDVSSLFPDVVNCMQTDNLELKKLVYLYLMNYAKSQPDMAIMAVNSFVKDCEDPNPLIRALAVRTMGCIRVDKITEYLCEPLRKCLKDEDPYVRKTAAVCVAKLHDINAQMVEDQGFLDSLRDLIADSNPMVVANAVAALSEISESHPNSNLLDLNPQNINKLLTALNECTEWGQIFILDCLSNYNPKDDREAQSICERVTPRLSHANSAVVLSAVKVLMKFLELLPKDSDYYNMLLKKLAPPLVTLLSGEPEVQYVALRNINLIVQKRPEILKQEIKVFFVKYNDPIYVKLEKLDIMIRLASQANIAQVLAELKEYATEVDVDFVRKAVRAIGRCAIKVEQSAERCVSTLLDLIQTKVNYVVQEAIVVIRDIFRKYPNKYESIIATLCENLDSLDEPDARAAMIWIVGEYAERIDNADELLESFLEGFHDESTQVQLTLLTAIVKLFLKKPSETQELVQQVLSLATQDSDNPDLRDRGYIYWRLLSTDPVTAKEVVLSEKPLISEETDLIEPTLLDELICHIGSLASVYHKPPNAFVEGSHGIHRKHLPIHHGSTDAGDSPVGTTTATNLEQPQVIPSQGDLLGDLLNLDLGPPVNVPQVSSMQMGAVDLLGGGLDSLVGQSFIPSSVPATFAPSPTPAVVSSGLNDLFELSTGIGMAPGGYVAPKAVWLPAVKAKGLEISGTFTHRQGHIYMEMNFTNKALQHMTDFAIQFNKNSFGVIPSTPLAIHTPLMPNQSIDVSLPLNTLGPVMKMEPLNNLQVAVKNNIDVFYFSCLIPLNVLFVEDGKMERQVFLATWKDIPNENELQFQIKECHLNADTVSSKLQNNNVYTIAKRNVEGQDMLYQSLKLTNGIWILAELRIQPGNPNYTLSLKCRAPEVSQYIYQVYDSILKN
Assay: BRET sensor of β-arrestin2 binding to AP-2 (β2-Adaptin-YFP), AT1R-mediated
Type: cell-based
Conditions: for AngII-promoted BRET, binding of β-arrestin2 to AP-2: individual experiments
Description: HEK293 cells were transfected with a BRET sensor that monitors the interaction between β-arrestins and the β-appendage of AP-2 (Fig. 2a)[26],[33]. […] The small GTPase ARF6, which binds β-arrestins and facilitates AP-2 and clathrin recruitment at the PM, is also necessary for CCPs initiation and receptor internalization. Therefore, ARF6 activity was assessed using the protein-3 binding domain (PBD) of the golgi-associated, gamma adaptin ear-containing, ARF-binding protein 3 (GGA3) fused to GST (GST-GGA3-PBD) in a pull-down assay, which allows the detection of GTP-bound ARF6 in cells[34] (Fig. 2b). […] This inhibition was selective for ARF6 since 21 had no effect on AT1R-dependent ARF1 activation (Supplementary Fig. 2a). We also devised a BRET assay to quantitatively assess 21’s action on ARF activity. The ARF BRET assay was created using the GGA3-PBD fused to RlucII (GGA3-PBD-RlucII) and the rGFP anchored at the PM (rGFP-CAAX) (Supplementary Fig. 3a). […] 21 blocked ARF’s activation by 40–60% following AT1R stimulation (Fig. 2c).
HEK293SL cells were seeded at a density of 7.5 × 10^5 cells per 100-mm dish and 24 h later, transiently transfected as such. For receptor internalization experiments, cells were transfected with 0.12 μg AT1R-RlucII, B2R-RlucII, or β2AR-RlucII and 0.48 μg of either rGFP-CAAX (to assess removal from the PM) or rGFP-FYVE (to assess accumulation in the endosomes). For β-arrestin recruitment assays, cells were transfected with 0.48 μg of receptor-YFP along with 0.12 μg of β-arrestin-RlucII. For β-arrestin/AP-2 binding experiments, cells were transfected with 1 μg Flag-AT1R, 1 μg β2-Adaptin-YFP, and 0.12 μg β-arrestin2-RlucII. For G protein activation, cells were transfected with 3 μg of sp-Flag-AT1R along with either 4.5 μg of the Gαq-polycistronic BRET sensor or 0.24 μg of the Gαi3-RlucII and 0.6 μg of GFP10-Gγ2 and Gβ1 sensors or 0.12 μg PKN-RBD-RlucII and 0.48 μg of rGFP-CAAX. For PKC activation, cells were transfected with 3 μg of sp-Flag-AT1R and 0.18 μg of the PKC sensor. For GTPase activation experiments, cells were transfected with 1 μg Flag-AT1R, 0.48 μg of rGFP-CAAX, and either 0.12 μg of GGA3-PBD-RlucII, PAK-CRIB-RlucII or Raf-RBD-RlucII. For biosensor validation experiments, cells were additionally transfected with 500 ng Flag-K-Ras-WT, Flag-K-Ras-G12V, Flag-K-Ras-SOS-CAAX, HA-ARF6-WT, HA-ARF6-T27N, Myc-Rac1-WT, Myc-Rac1-Q61L or Myc-Rac1-T17N. For PI3K/Akt activation experiments, cells were transfected with 0.48 μg of rGFP-CAAX and 0.12 μg of Akt (PH)-RlucII. After 18 h of transfection, the media was replaced and cells were divided for subsequent experiments. Cells were detached and seeded onto poly-L-ornithine-coated 96-well flat white bottom plates (BrandTech Scientific) at a density of 2.5 × 10^4 cells per well in media. The next day, cells were washed once with Tyrode’s buffer (140 mM NaCl, 2.7 mM KCl, 1 mM CaCl2, 12 mM NaHCO3, 5.6 mM D-glucose, 0.5 mM MgCl2, 0.37 mM NaH2PO4, 25 mM HEPES, pH 7.4) and left in Tyrode’s buffer. For kinetics of β-arrestin recruitment or β-arrestin binding to receptor and AP-2 experiments, cells were serum starved for 30 min, pretreated with 21 (50 µM) or Barbadin (100 µM) for 30 min, stimulated with 100 nM AngII or 1 µM BK and BRET signals were monitored at indicated times using a Victor X Light plate reader (PerkinElmer). Coelenterazine H (final concentration of 5 µM) was added 3–5 min prior to BRET measurements. Filter set was 460/80 nm and 535/30 nm for detecting the RlucII Renilla luciferase (donor) and YFP (acceptor) light emissions, respectively. The BRET ratio was determined by calculating the ratio of the light emitted by YFP over the light emitted by the RlucII. For G protein activation, cells were serum starved, pretreated with compounds for 30 min, stimulated with 100 nM AngII for 2 min (Gαq, Gαi3, and Rho sensors) or 5 min (PKC sensor). […]

Question: What does the source list for `CC(C)C(=O)N1CCN(c2ccc(NC(=O)c3cc4ccccc4o3)cc2Cl)CC1` [Compound 21]?
Answer: inhibition at 50 µM (21 at 50 µM, read-out: inhibition of the AngII-mediated β-arrestin/AP-2 complex formation): ≤ 20%; AngII-promoted BRET, binding of β-arrestin2 to AP-2 (AngII + Comp 21 (50μM), time 0 min): 0; AngII-promoted BRET, binding of β-arrestin2 to AP-2 (AngII + Comp 21 (50μM), time 2 min): 0.0291 and 0.02266 and 0.02708; AngII-promoted BRET, binding of β-arrestin2 to AP-2 (AngII + Comp 21 (50μM), time 4 min): 0.03981 and 0.03342 and 0.03976; AngII-promoted BRET, binding of β-arrestin2 to AP-2 (AngII + Comp 21 (50μM), time 8 min): 0.0471 and 0.04211 and 0.04647; AngII-promoted BRET, binding of β-arrestin2 to AP-2 (AngII + Comp 21 (50μM), time 12 min): 0.04695 and 0.03931 and 0.04772; AngII-promoted BRET, binding of β-arrestin2 to AP-2 (AngII + Comp 21 (50μM), time 20 min): 0.04571 and 0.04297 and 0.04991; AngII-promoted BRET, binding of β-arrestin2 to AP-2 (AngII + Comp 21 (50μM), time 24 min): 0.04875 and 0.04367 and 0.04987

Question: For `Nn1cnc2scc(-c3ccc(Cc4ccccc4)cc3)c2c1=O` [Barbadin, reference compound], which “AngII-promoted BRET, binding of β-arrestin2 to AP-2” value (from here on “AngII-promoted BRET, binding”) (AngII + Barbadin (100 μM), time 0 min) is on record?
Answer: 0

Question: And the “AngII-promoted BRET, binding” value (AngII + Barbadin (100 μM), time 2 min)?
Answer: 0.00931 and 0.01844 and 0.00859

Question: What about the “AngII-promoted BRET, binding” value (AngII + Barbadin (100 μM), time 4 min) of the same molecule?
Answer: 0.01939 and 0.02951 and 0.01857

Question: What about the “AngII-promoted BRET, binding” value (AngII + Barbadin (100 μM), time 8 min) of the same molecule?
Answer: 0.01773 and 0.0324 and 0.02267

Question: And the “AngII-promoted BRET, binding” value (AngII + Barbadin (100 μM), time 12 min)?
Answer: 0.01829 and 0.0336 and 0.02027

Question: And the “AngII-promoted BRET, binding” value (AngII + Barbadin (100 μM), time 20 min)?
Answer: 0.02374 and 0.03345 and 0.02061

Question: What about the “AngII-promoted BRET, binding” value (AngII + Barbadin (100 μM), time 24 min) of the same molecule?
Answer: 0.01867 and 0.03563 and 0.02365

Question: And the “inhibition of the formation of the β-arrestin/AP-2 complex mediated by AT1R” value (Barbadin 100 µM)?
Answer: more than 50%
